{"source": "patent US20160362433A1", "about": "“ETHER COMPOUNDS FOR TREATMENT OF COMPLEMENT MEDIATED DISORDERS” (Achillion Pharmaceuticals, Inc., priority 2014, published 2016)", "target": "T1, Human factor D (Homo sapiens, UniProt P00746)", "T1 construct": "Human factor D (purified from human serum, Complement Technology, Inc.); purchased Complement Technology, Inc; host or cells: human serum", "T1 sequence (P00746 26-253)": "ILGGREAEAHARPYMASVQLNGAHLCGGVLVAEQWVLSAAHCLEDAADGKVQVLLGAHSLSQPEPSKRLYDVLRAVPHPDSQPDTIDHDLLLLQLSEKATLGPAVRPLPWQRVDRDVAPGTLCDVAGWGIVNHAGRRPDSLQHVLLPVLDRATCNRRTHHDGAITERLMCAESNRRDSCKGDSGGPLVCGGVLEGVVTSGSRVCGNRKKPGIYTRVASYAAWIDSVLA", "assay": "Human Factor D Assay", "assay_type": "biochemical", "details": "Human factor D 80 nM, substrate Z-L-Lys-SBzl, DTNB", "procedure": "The assay of Example 8 was used to determine the IC50's of the compounds. Other standard factor D inhibition assays are also available.\nHuman factor D (purified from human serum, Complement Technology, Inc.) at 80 nM final concentration is incubated with test compound at various concentrations for 5 minutes at room temperature in 50 mM Tris, 1M NaCl, pH 7.5. A synthetic substrate Z-L-Lys-SBzl and DTNB (Ellman's reagent) are added to final concentrations of 100 μM each. The increase in color is recorded at OD405 nm in a microplate in kinetic mode over 30 minutes with 30 second time points in a spectrofluorimeter. IC50 values are calculated by non-linear regression from the percentage of inhibition of complement factor D activity as a function of test compound concentration.", "data": [{"smiles": "CC(=O)c1cn(CC(=O)N2C[C@H](F)C[C@H]2C(=O)NCc2cccc(Cl)c2F)c2cc(OCc3cc4ccc3CCc3ccc(cc3)CC4)ccc12", "note": "[Compound 6, (2S,4R)-1-(2-(3-acetyl-6-((tricyclo[8.2.2.2^4,7]hexadeca-4,6,10,12,13,15-hexaen-5-ylmethyl)oxy)-1H-indol-1-yl)acetyl)-N-(3-chloro-2-fluorobenzyl)-4-fluoropyrrolidine-2-carboxamide]", "values": [{"measurement": "IC50", "value": "1 to 10", "unit": "µM"}]}]}
